Measurements: article doi:10.1101/2025.04.16.649181, “Design of peptide-based PAC1 antagonists combining molecular dynamics simulations and a biologically relevant cell-based assay” (bioRxiv, 2025)
Positions of bridges follow the written chain, without caps; N, C: chain ends. Non-standard residues stand in square brackets, D forms with d. Residues, ends and D or L forms follow the SMILES beside them. No end group written: not given here. Cha = N[C@@H](CC1CCCCC1)C(=O)O

Key:
[1] = target: T1, PAC1 (endogenous, mainly PAC1null, SH-SY5Y) (Homo sapiens, UniProt P41586); test: CBS assay, antagonism of P38-induced cAMP in SY5Y_CBS cells; assay type: cell-based; details: for IC50: three independent experiments; for P38-induced cAMP elevation blocked to: 0.2 nM P38, SY5Y_CBS, n = 3
T1 construct: Neuroblastoma SH-SY5Y cells endogenously xpressing hPAC1 and engineered to express CBS; endogenous in cells
T1 sequence (P41586 21-468): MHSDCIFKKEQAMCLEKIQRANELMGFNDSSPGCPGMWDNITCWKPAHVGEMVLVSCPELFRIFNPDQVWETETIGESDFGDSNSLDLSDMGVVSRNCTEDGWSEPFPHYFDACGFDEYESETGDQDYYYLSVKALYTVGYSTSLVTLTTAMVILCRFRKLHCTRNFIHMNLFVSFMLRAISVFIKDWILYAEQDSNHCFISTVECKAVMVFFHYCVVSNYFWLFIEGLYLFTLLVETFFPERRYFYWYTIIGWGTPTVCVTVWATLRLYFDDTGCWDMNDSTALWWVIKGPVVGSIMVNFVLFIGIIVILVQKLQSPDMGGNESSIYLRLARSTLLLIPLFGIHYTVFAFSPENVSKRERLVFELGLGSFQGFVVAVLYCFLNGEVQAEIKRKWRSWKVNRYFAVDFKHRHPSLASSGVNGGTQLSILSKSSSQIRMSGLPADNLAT
Excerpt: (§1) A single clone of the SH-SY5Y cell line stably expressing a cAMP biosensor (SY5Y_CBS) was generated as previously described for HEK293_CBS and NS-1_CBS cells, using the retroviral vector pLHCX containing the cAMP biosensor and a hygromycin resistance gene. A HEK293_CBS_hPAC1 cell clone was generated by transducing HEK293_CBS cells with the lentiviral vector pLX304 (GeneCopoeia, Rockville, MD) encoding the human PAC1hop (PAC1; GenBank accession no. BC143679) and a blasticidin resistance gene . Following transduction, cells were selected with the appropriate antibiotics (hygromycin or blasticidin) for 2 weeks. Single-cell clones were subsequently isolated by limiting dilution and assessed for PACAP-induced cAMP production using concentration-response assays.
(§2) The cyclic AMP biosensor (CBS) assay was performed using Gibco CO2-independent medium (ThermoFisher, catalog #18045-088). HEK293_CBS_hPAC1 or SY5Y_CBS cells were seeded in 96-well black/clear-bottom plates (MidSci, Fenton, MO) at a density of 6,000 cells per well and incubated overnight. The following day, the medium in each well was aspirated and replaced with fresh medium containing 1.5 mg/mL D-luciferin potassium salt substrate (Gold Biotechnology, St. Louis, MO) and 500 μM isobutyl-1-methylxanthine (IBMX), followed by incubation at 37 °C for 1 hour. Cells were then pre-treated with antagonists for 10 minutes before the addition of agonists (PACAP or forskolin). Plates were incubated at 37 °C for 1 hour, then brought to room temperature and equilibrated for 30 minutes. Luminescence was measured using a GloMax plate reader (Promega, Madison, WI).
(§3) GraphPad Prism ver. 9.0 or 10.0 (GraphPad Software Inc, Boston, MA) was used for data analysis. Concentration response curves were created using a four parameter logistic regression model. EC80 and IC50 parameters were obtained using non-linear regression curve fitting tools. EC80 was calculated as the effective concentration of the agonist required to produce 80% of the maximal response. IC50 was calculated as the concentration of the antagonist that produced 50% of the response induced by an agonist (either PACAP or forskolin) in the absence of the antagonist. Seven or eight different concentrations and three technical replicates per concentration were used for curve fitting. All data are presented as mean ± standard error of the mean (SEM).

[2] = target: T1, PAC1 (endogenous, mainly PAC1null, SH-SY5Y); test: CBS assay, antagonism of P27-induced cAMP in SY5Y_CBS cells; assay type: cell-based; details: for antagonist potency vs P6-27: 0.2 nM P27 (EC80); for IC50: IC50 against P27, 0.2 nM P27 (EC80), n = 3, Figure 7C
Excerpt: as §1, §2
For the high-throughput CBS screening assays, cells were plated at 2,000 (HEK293_CBS_hPAC1) or 3,000 (SY5Y_CBS) cells per well in […] of Gibco CO2-independent medium, in white 1,536-well tissue culture treated plates. After overnight incubation at 37 °C and 5% CO2, […] of luciferin/IBMX solution was added to the wells (final concentrations of 500 μM each) and plates were incubated at 37 °C for 1 hour. SMOLs (22.5 nL) were transferred to the assay plate, using a pintool device (HEK293 screen) or an ECHO acoustic liquid handler (Beckman Coulter, Brea, CA, SY5Y screen), to final concentrations (4 concentrations per compound) between 0.5 and 30 μM and cells were incubated at 37 °C for 1 hour (HEK293 screen) or 10 minutes (SY5Y screen). […] For forskolin counterscreening in SY5Y cells, forskolin instead of peptide was dispensed to the plate at a final concentration of 5 μM.
as §3

[3] = 0.2 nM P38 (EC80), SY5Y_CBS, mean ± SEM, Figure 11B, read-out: IC50 of P6-38 C-terminal mutants in CBS assay
[4] = IC50 against P38 (Figure 9C), 0.2 nM P38, CBS assay, mean ± SEM

FTDSYSRYRKQMAVKKYLAAVLGKRYK-NH2 [P6-32]
IC50 [1, 3]: 0.072 ± 0.017 µM

CSCC[C@H](NC(=O)[C@H](CCC(N)=O)NC(=O)[C@H](CCCCN)NC(=O)[C@H](CCCNC(=N)N)NC(=O)[C@H](Cc1ccc(O)cc1)NC(=O)[C@H](CCCNC(=N)N)NC(=O)[C@H](CO)NC(=O)[C@H](Cc1ccc(O)cc1)NC(=O)[C@H](CO)NC(=O)[C@H](CC(=O)O)NC(=O)[C@@H](NC(=O)[C@@H](N)Cc1ccccc1)[C@@H](C)O)C(=O)N[C@@H](C)C(=O)N[C@H](C(=O)N[C@@H](CCCCN)C(=O)N[C@@H](CCCCN)C(=O)N[C@@H](Cc1ccc(O)cc1)C(=O)N[C@@H](CC(C)C)C(=O)N[C@@H](C)C(=O)N[C@H]1CCC(=O)NCCCC[C@@H](C(=O)N[C@@H](CCCNC(=N)N)C(=O)N[C@@H](Cc2ccc(O)cc2)C(=O)N[C@@H](CCCCN)C(=O)N[C@@H](CCC(N)=O)C(=O)N[C@@H](CCCNC(=N)N)C(=O)N[C@H](C(=O)N[C@@H](CCCCN)C(=O)N[C@@H](CC(N)=O)C(=O)N[C@@H](CCCCN)C(N)=O)C(C)C)NC(=O)CNC(=O)[C@H](CC(C)C)NC(=O)[C@H](C(C)C)NC1=O)C(C)C [P6-38Lb, (c[E25,K29])P6-38] (H-FTDSYSRYRKQMAVKKYLAEVLGKRYKQRVKNK-NH2; lactam 20-24)
IC50 [1, 4]: 0.219 ± 0.028 µM

CSCC[C@@H]1NC(=O)[C@@H](NC(=O)[C@H](CCCCN)NC(=O)[C@H](CCCNC(=N)N)NC(=O)[C@H](Cc2ccc(O)cc2)NC(=O)[C@H](CCCNC(=N)N)NC(=O)[C@H](CO)NC(=O)[C@H](Cc2ccc(O)cc2)NC(=O)[C@H](CO)NC(=O)[C@H](CC(=O)O)NC(=O)[C@@H](NC(=O)[C@@H](N)Cc2ccccc2)[C@@H](C)O)CCC(=O)NCCCC[C@@H](C(=O)N[C@@H](CCCCN)C(=O)N[C@@H](Cc2ccc(O)cc2)C(=O)N[C@@H](CC(C)C)C(=O)N[C@@H](C)C(=O)N[C@@H](C)C(=O)N[C@H](C(=O)N[C@@H](CC2CCCCC2)C(N)=O)C(C)C)NC(=O)[C@H](C(C)C)NC(=O)[C@H](C)NC1=O [P6-27Lbx2, (c[E16,K20], Cha27)P6-27] (H-FTDSYSRYRKEMAVKKYLAAV[Cha]-NH2; lactam 11-15; N-terminus assumed)
antagonist potency vs P6-27 [2]: did not increase the inhibitory effect of P6-27 | IC50 [2]: > 1 µM

CSCC[C@H](NC(=O)[C@H](CCC(N)=O)NC(=O)[C@H](CCCCN)NC(=O)[C@H](CCCNC(=N)N)NC(=O)[C@H](Cc1ccc(O)cc1)NC(=O)[C@H](CCCNC(=N)N)NC(=O)[C@H](CO)NC(=O)[C@H](Cc1ccc(O)cc1)NC(=O)[C@H](CO)NC(=O)[C@H](CC(=O)O)NC(=O)[C@@H](NC(=O)[C@@H](N)Cc1ccccc1)[C@@H](C)O)C(=O)N[C@@H](C)C(=O)N[C@H](C(=O)N[C@@H](CCCCN)C(=O)N[C@@H](CCCCN)C(=O)N[C@@H](Cc1ccc(O)cc1)C(=O)N[C@@H](CC1CCCCC1)C(=O)N[C@@H](C)C(=O)N[C@H]1CCC(=O)NCCCC[C@@H](C(=O)N[C@@H](CCCNC(=N)N)C(=O)N[C@@H](Cc2ccc(O)cc2)C(=O)N[C@@H](CCCCN)C(=O)N[C@@H](CCC(N)=O)C(=O)N[C@@H](CCCNC(=N)N)C(=O)N[C@H](C(=O)N[C@@H](CCCCN)C(=O)N[C@@H](CC(N)=O)C(=O)N[C@@H](CCCCN)C(N)=O)C(C)C)NC(=O)CNC(=O)[C@H](CC(C)C)NC(=O)[C@H](C(C)C)NC1=O)C(C)C [P6-38Lbx1, (c[E25,K29], Cha23)P6-38] (H-FTDSYSRYRKQMAVKKY[Cha]AEVLGKRYKQRVKNK-NH2; lactam 20-24)
IC50 [1, 4]: 0.061 ± 0.012 µM

FTDSYSRYRKQMAVKKYLAAVLGKRYKQRVK-NH2 [P6-36]
IC50 [1, 3]: 0.09 ± 0.013 µM

FTDSYSRYRKQMAVKKYLAAVL-NH2 [P6-27]
P38-induced cAMP elevation blocked to ([1]; P6-27 at 1 μM): 50% | P38-induced cAMP elevation blocked to ([1]; until the highest concentration tested (10 μM)): ~ 50%

CSCC[C@@H]1NC(=O)[C@@H](NC(=O)[C@H](CCCCN)NC(=O)[C@H](CCCNC(=N)N)NC(=O)[C@H](Cc2ccc(O)cc2)NC(=O)[C@H](CCCNC(=N)N)NC(=O)[C@H](CO)NC(=O)[C@H](Cc2ccc(O)cc2)NC(=O)[C@H](CO)NC(=O)[C@H](CC(=O)O)NC(=O)[C@@H](NC(=O)[C@@H](N)Cc2ccccc2)[C@@H](C)O)CCC(=O)NCCCC[C@@H](C(=O)N[C@@H](CCCCN)C(=O)N[C@@H](Cc2ccc(O)cc2)C(=O)N[C@@H](CC2CCCCC2)C(=O)N[C@@H](C)C(=O)N[C@@H](C)C(=O)N[C@H](C(=O)N[C@@H](CC(C)C)C(N)=O)C(C)C)NC(=O)[C@H](C(C)C)NC(=O)[C@H](C)NC1=O [P6-27Lbx1, (c[E16,K20], Cha23)P6-27] (H-FTDSYSRYRKEMAVKKY[Cha]AAVL-NH2; lactam 11-15; N-terminus assumed)
antagonist potency vs P6-27 [2]: did not increase the inhibitory effect of P6-27 | IC50 [2]: > 1 µM

CSCC[C@@H]1NC(=O)[C@@H](NC(=O)[C@H](CCCCN)NC(=O)[C@H](CCCNC(=N)N)NC(=O)[C@H](Cc2ccc(O)cc2)NC(=O)[C@H](CCCNC(=N)N)NC(=O)[C@H](CO)NC(=O)[C@H](Cc2ccc(O)cc2)NC(=O)[C@H](CO)NC(=O)[C@H](CC(=O)O)NC(=O)[C@@H](NC(=O)[C@@H](N)Cc2ccccc2)[C@@H](C)O)CCC(=O)NCCCC[C@@H](C(=O)N[C@@H](CCCCN)C(=O)N[C@@H](Cc2ccc(O)cc2)C(=O)N[C@@H](CC(C)C)C(=O)N[C@@H](C)C(=O)N[C@@H](C)C(=O)N[C@H](C(=O)N[C@@H](CC(C)C)C(N)=O)C(C)C)NC(=O)[C@H](C(C)C)NC(=O)[C@H](C)NC1=O [P6-27Lb, (c[E16,K20])P6-27] (H-FTDSYSRYRKEMAVKKYLAAVL-NH2; lactam 11-15; N-terminus assumed)
antagonist potency vs P6-27 [2]: did not increase the inhibitory effect of P6-27 | IC50 [2]: > 1 µM

FTDSYSRYRKQMAVKKYLAAVLG-NH2 [P6-28]
IC50 ([1]; 0.2 nM P38 (EC80), SY5Y_CBS, Figure 11B, read-out: IC50 of P6-38 C-terminal mutants in CBS assay): > 1 µM
